Literature values in patent publication US11744998B2, “Drug delivery devices with drug-permeable component and methods” (TARIS Biomedical LLC, priority 2015, dated 2023).
Counter-ions that a name gives are not always drawn.

Conditions: water at 37° C.

SMILES	approximate solubility
Cc1ccc(O)c([C@H](CCN(C(C)C)C(C)C)c2ccccc2)c1 [tolterodine tartrate]	~12 mg/mL
Nc1ccn([C@@H]2O[C@H](CO)[C@@H](O)C2(F)F)c(=O)n1 [gemcitabine base]	~15 mg/mL
Nc1ccn([C@@H]2O[C@H](CO)[C@@H](O)C2(F)F)c(=O)n1 [gemcitabine HCl]	~80 mg/mL
O=C(O[C@H]1C[C@H]2CC[C@@H](C1)[N+]21CCCC1)C(O)(c1ccccc1)c1ccccc1 [trospium chloride]	~500 mg/mL
